# Experimental data: patent publication US4196205A, “3-Acetoxymethyl-7-(iminoacetamido)-cephalosporanic acid derivatives” (priority 1976, dated 1980)
# Like-named read-outs stand apart in the source and are kept apart here.
# Key:
# Assay in all cases: MIC, dilution in liquid medium
# Assay type in all cases: cell-based
# [1] = test system: Streptococcus faecalis 5 432
# Description: (§1) The method used was a dilution of a liquid medium where a series of tubes received the same quantity of a sterile nutritive media and increasing doses of the test compounds were placed therein. Then each tube was seeded with a bacterial strain and was incubated for 24 to 48 hours at 37° C. in an oven. The increasing inhibition was determined by transillumination to determine the minimum inhibiting concentration (MIC in […]) and the results are reported in the following Tables.
# [2] = test system: Klebsiella pneumoniae Exp. 52 145; conditions: Klebsiella pneumoniae
# Description: as §1
# [3] = test system: Streptococcus pyogenes A 561; conditions: Streptococcus pyogenes, read-out: M.I.C.
# Description: as §1
# [4] = test system: Staphylococcus aureus UC 1 128 Pen-Resistant; conditions: Staphylococcus aureus
# Description: as §1
# [5] = test system: Streptococcus faecalis 99 F 74; conditions: Enterococcus faecalis
# Description: as §1
# [6] = test system: Escherichia Coli Sensible Tetracycline ATCC 9 637 = 1020; conditions: Escherichia coli
# Description: as §1
# [7] = test system: Staphylococcus aureus ATCC 5 638 Pen-Sensible = UC 1061
# Description: as §1
# [8] = test system: Staphylococcus aureus exp. n° 54 146; conditions: Staphylococcus aureus
# Description: as §1
# [9] = test system: Salmonella typhimurium 420; conditions: Salmonella enterica, TYPHIMURIUM
# Description: as §1
# [10] = test system: Proteus mirabilis (indol-) A 235; conditions: Proteus mirabilis, read-out: M.I.C.
# Description: as §1
# [11] = test system: Serratia Resistant Gentamicine 2 532
# Description: as §1
# [12] = test system: Escherichia Coli Resistant Tetracycline ATCC 11 303 = UC 1261; conditions: Escherichia coli
# Description: as §1
# [13] = test system: Escherichia Coli Resistant Gentamicine, Tobramycine R 55 123 D; conditions: Escherichia coli, read-out: M.I.C.
# Description: as §1
# [14] = test system: Escherichia Coli Exp. TO26 B6; conditions: Escherichia coli
# Description: as §1
# [15] = test system: Providencia Du 48; conditions: Providencia
# Description: as §1
# [16] = test system: Bacillus subtilis ATCC 6 633; conditions: Bacillus subtilis
# Description: as §1
# [17] = test system: Enterobacter cloacae 681
# Description: as §1
# [18] = test system: Klebsiella pneumoniae 2 536 Resistant Gentamicine; conditions: Klebsiella pneumoniae
# Description: as §1
# [19] = Enterococcus faecalis, 5432, 24 h, 24 H
# [20] = Enterococcus faecalis, 5432, 48 h, 48 H
# [21] = Enterobacter cloacae, 681, 24 h
Compound,"MIC [1, 19]","MIC [1, 20]","MIC ([3]; A561, 24 h, 24 H)","MIC ([3]; A561, 48 h, 48 H)","MIC ([4]; UC1, 24 h, 24 H)","MIC ([4]; UC1, 48 h, 48 H)",MIC ([8]; 24 h),MIC ([8]; 48 h),"MIC ([9]; 24 h, read-out: M.I.C.)",MIC ([10]; 24 h),MIC ([10]; 48 h),MIC ([11]; 24 h),MIC ([13]; 24 h),MIC ([13]; 48 h),MIC ([14]; 24 h),MIC ([14]; 48 h),"MIC ([15]; DU48, 24 h, 24 H)","MIC ([15]; DU48, 48 h, 48 H)","MIC ([16]; ATCC6, 48 h, 48 H)","MIC [17, 21]",also measured
"CC(=O)OCC1=C(C(=O)O)N2C(=O)C(NC(=O)/C(=N\O)c3csc(N)n3)C2SC1 (stereo not drawn) [Example 28, syn isomer of 7-[2-(2-amino-4-thiazolyl)-2-hydroxyiminoacetamido]-3-acetoxymethyl-ceph-3-eme-4-carboxylic acid]",5 µg/mL,5 µg/mL,0.02 µg/mL,0.02 µg/mL,1 µg/mL,1 µg/mL,1 µg/mL,1 µg/mL,0.1 µg/mL,0.1 µg/mL,0.2 µg/mL,5 µg/mL,0.2 µg/mL,0.2 µg/mL,0.05 µg/mL,0.1 µg/mL,2 µg/mL,2 µg/mL,1 µg/mL,5 µg/mL,"MIC ([2]; EXP.52145, 24 h, 24 H): 0.05 µg/mL; MIC ([2]; EXP.52145, 48 h, 48 H): 0.1 µg/mL; MIC ([5]; 99F74, 24 h, read-out: M.I.C.): 10 µg/mL; MIC ([5]; 99F74, 48 h, 48 H): 40 µg/mL; MIC ([6]; ATCC9, 24 h, 24 H): 0.05 µg/mL; MIC ([6]; ATCC9, 48 h, 48 H): 0.1 µg/mL; MIC ([7]; 24 h, read-out: M.I.C.): 0.5 µg/mL; MIC ([7]; 48 h, read-out: M.I.C.): 0.5 µg/mL; MIC ([9]; 48 h): 0.1 µg/mL; MIC ([11]; 48 h, read-out: M.I.C.): 10 µg/mL; MIC ([12]; 24 h): 0.1 µg/mL; MIC ([12]; 48 h): 0.1 µg/mL; MIC ([16]; ATCC6, 24 h, 24 H, read-out: M.I.C.): 0.5 µg/mL; MIC ([17]; Enterobacter cloacae, 681, 48 h, read-out: M.I.C.): 10 µg/mL; MIC ([18]; 24 h, read-out: M.I.C.): 0.2 µg/mL; MIC ([18]; 48 h, read-out: M.I.C.): 0.5 µg/mL"
"C=CO/N=C(\C(=O)NC1C(=O)N2C(C(=O)O)=C(COC(C)=O)CSC12)c1csc(N)n1 (stereo not drawn) [Product B, syn isomer of 3-acetoxymethyl-7-[2-(2-amino-4-thiazolyl)-2-vinyloxyimino-acetamido]-ceph-3-eme-4-carboxylic acid]",3 µg/mL,5 µg/mL,≤ 0.02 µg/mL,≤ 0.02 µg/mL,1 µg/mL,1 µg/mL,1 µg/mL,2 µg/mL,0.5 µg/mL,≤ 0.02 µg/mL,≤ 0.02 µg/mL,1 µg/mL,0.5 µg/mL,0.5 µg/mL,0.2 µg/mL,0.2 µg/mL,2 µg/mL,2 µg/mL,5 µg/mL,3 µg/mL,"MIC ([2]; EXP.52145, 24 h, 24 H, read-out: M.I.C.): ≤ 0.02 µg/mL; MIC ([2]; EXP.52145, 48 h, 48 H, read-out: M.I.C.): ≤ 0.02 µg/mL; MIC ([5]; 99F74, 24 h, 24 H): 5 µg/mL; MIC ([5]; 99F74, 48 h, read-out: M.I.C.): 10 µg/mL; MIC ([6]; ATCC9, 24 h, 24 H, read-out: M.I.C.): 0.5 µg/mL; MIC ([6]; ATCC9, 48 h, 48 H, read-out: M.I.C.): 0.5 µg/mL; MIC ([7]; 24 h): 1 µg/mL; MIC ([7]; 48 h): 1 µg/mL; MIC ([9]; 48 h, read-out: M.I.C.): 0.5 µg/mL; MIC ([11]; 48 h): 2 µg/mL; MIC ([12]; 24 h, read-out: M.I.C.): 0.05 µg/mL; MIC ([12]; 48 h, read-out: M.I.C.): 0.95 µg/mL; MIC ([16]; ATCC6, 24 h, 24 H): 2 µg/mL; MIC ([17]; Enterobacter cloacae, 681, 48 h): 5 µg/mL; MIC ([18]; 24 h): 1 µg/mL; MIC ([18]; 48 h): 2 µg/mL"
